Test results from PMC4030953, “Pyranose Dehydrogenase from Agaricus campestris and Agaricus xanthoderma: Characterization and Applications in Carbohydrate Conversions” (Biomolecules, 2013).

Tests used:
AcPDH [1] = target: T1, AcPDH (Agaricus campestris, UniProt V5NDL4); assay: spectrophotometric electron acceptor reduction; assay type: biochemical; details: apparent, 25 mM D-glucose, pH 8.5, 30 °C
T1 construct: gene pdh1
Text: spectrophotometric electron acceptor reduction on AcPDH

AxPDH = target: T2, AxPDH (Agaricus xanthodermus, UniProt V5NC32); assay: spectrophotometric electron acceptor reduction; assay type: biochemical; details: apparent, 25 mM D-glucose, pH 8.5, 30 °C
T2 construct: gene pdh1
T2 sequence (V5NC32 26-600): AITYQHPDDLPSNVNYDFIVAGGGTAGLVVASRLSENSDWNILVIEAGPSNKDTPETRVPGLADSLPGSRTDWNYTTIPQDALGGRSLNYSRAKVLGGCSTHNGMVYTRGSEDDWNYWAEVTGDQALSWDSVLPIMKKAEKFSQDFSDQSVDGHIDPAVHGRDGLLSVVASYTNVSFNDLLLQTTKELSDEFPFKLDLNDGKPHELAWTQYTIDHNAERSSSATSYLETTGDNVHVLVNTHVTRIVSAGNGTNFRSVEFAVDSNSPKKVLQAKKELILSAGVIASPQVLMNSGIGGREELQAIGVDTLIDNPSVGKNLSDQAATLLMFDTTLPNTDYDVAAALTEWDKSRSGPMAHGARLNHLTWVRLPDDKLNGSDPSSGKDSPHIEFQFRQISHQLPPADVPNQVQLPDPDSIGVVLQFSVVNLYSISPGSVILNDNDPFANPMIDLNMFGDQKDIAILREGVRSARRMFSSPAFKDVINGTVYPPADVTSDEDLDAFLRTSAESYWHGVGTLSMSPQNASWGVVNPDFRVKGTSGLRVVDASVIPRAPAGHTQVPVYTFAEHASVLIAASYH
Text: spectrophotometric electron acceptor reduction on AxPDH

AcPDH [2] = target: T1, AcPDH; assay: in-gel flavin fluorescence after SDS-PAGE; assay type: binding; details: covalent; UV 302 nm

T1 sequence (V5NDL4 22-595): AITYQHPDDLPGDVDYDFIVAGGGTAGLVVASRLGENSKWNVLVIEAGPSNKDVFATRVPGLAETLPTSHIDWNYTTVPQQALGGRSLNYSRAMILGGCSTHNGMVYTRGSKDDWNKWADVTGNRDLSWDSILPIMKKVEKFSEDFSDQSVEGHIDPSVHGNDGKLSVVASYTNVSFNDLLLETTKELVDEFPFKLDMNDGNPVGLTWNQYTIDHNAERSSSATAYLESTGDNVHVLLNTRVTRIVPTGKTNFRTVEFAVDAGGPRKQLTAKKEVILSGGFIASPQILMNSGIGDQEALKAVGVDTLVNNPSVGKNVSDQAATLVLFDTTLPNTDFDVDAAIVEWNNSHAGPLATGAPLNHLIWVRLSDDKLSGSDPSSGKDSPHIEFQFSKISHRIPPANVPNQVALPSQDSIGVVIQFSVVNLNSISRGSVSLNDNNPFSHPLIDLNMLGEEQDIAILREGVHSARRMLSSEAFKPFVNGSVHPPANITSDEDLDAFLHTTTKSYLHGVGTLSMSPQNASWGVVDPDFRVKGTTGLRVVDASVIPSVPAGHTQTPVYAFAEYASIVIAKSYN

Question: With `F[P-](F)(F)(F)(F)F.[Fe+3].c1cc[cH-]c1.c1cc[cH-]c1` [Fc^+PF6] as the molecule, how does the Km (AcPDH [1]) read?
Answer: The Km was 1.19 ± 0.17 mM.

Question: What about the Km (AxPDH) of the same molecule?
Answer: The Km was 30 µM.

Question: How did the “in-gel flavin fluorescence after SDS-PAGE” value (AcPDH [2]) turn out when `Cc1cc2nc3c(=O)[nH]c(=O)nc-3n(C[C@H](O)[C@H](O)[C@H](O)COP(=O)(O)OP(=O)(O)OC[C@H]3O[C@@H](n4cnc5c(N)ncnc54)[C@H](O)[C@@H]3O)c2cc1C` [FAD] was run?
Answer: Its value is “AcPDH and AxPDH showed a bright band under UV-light”.
